# Measured values from patent publication US10376520B2, “Methods for the treatment of cardiovascular disorders” (Galapagos NV, priority 2015, dated 2019).
# Test system: RA patients
# Test: Total cholesterol determination, Study 1 (RA patients with inadequate response to methotrexate, add-on to MTX)
# Type: in vivo, human
# Settings: for [Total cholesterol] Median CFB / [total cholesterol] Mean CFB: Study 1 12 weeks results
# Method: Double-blind, placebo-controlled add on study in subjects with moderately to severely active RA who have an inadequate response to methotrexate (MTX) (oral or parenteral).
# 595 subjects randomized to one of 6 dose regimens of Compound 1 (dosed as a [Compound 1:HCl:3H2O]) (3 dose levels administered either once or twice daily) or placebo on top of each subject's stable dose of MTX.
# Compound 1 (dosed as a [Compound 1:HCl:3H2O]) is dosed for twelve weeks once daily (q.d.) (50 mg, 100 mg or 200 mg) or twice daily (b.i.d.) (25 mg, 50 mg or 100 mg); or placebo.
# At Week 12, the subjects on placebo who have not achieved 20% improvement in swollen joint count (SJC66) and tender joint count (TJC68) are re-randomized automatically to receive Compound 1 (dosed as a [Compound 1:HCl:3H2O]) either at 100 mg q.d. or 50 mg b.i.d. doses in a blinded fashion; subjects on 50 mg q.d. who have not achieved 20% improvement in SJC66 and TJC68 will be assigned to 100 mg q.d. and subjects on 25 mg b.i.d. that have not achieved a 20% improvement in SJC66 and TJC68 will be assigned to 50 mg b.i.d. Subjects who switch treatment at week 12 are handled as if they discontinued at week 12 for the purpose of statistical analysis, whereas subjects in the other groups will maintain their randomized treatment until Week 24.
# This method is based on the determination of Δ^4 cholestenone after enzymatic cleavage of the cholesterol ester by cholesterol esterase, conversion of cholesterol by cholesterol oxidase, and subsequent measurement by the Trinder reaction of the hydrogen peroxide formed (Allain et al., 1974).
# Cholesterol esters are cleaved by the action of cholesterol esterase to yield free cholesterol and fatty acids. Cholesterol oxidase then catalyzes the oxidation of cholesterol to cholest-4-en-3-one and hydrogen peroxide. In the presence of peroxidase, the hydrogen peroxide formed effects the oxidative coupling of phenol and 4-aminophenazone to form a red quinone-imine dye. The color intensity of the dye formed is directly proportional to the cholesterol concentration. It is determined by measuring the increase in absorbance.
# Human serum and plasma samples cholesterol determination was done on a Roche/Hitachi Cobas c 701/702 system which automatically calculate the analyte concentration of each sample.
structure (smiles),measurement,setting,value
"O=C(Nc1nc2cccc(-c3ccc(CN4CCS(=O)(=O)CC4)cc3)n2n1)C1CC1 [Compound 1, cyclopropanecarboxylic acid {5-[4-(1,1-dioxo-thiomorpholin-4-ylmethyl)-phenyl]-[1,2,4]triazolo[1,5-a]pyridin-2yl}-amide]",[total cholesterol] Mean percentage CFB - 12 weeks results,"50 mg q.d. (N = 82), week 1",1%
same,[total cholesterol] Mean percentage CFB - 12 weeks results,"50 mg q.d. (N = 82), week 2",1%
same,[total cholesterol] Mean percentage CFB - 12 weeks results,"50 mg q.d. (N = 82), week 4",1%
same,[total cholesterol] Mean percentage CFB - 12 weeks results,"50 mg q.d. (N = 82), week 8",3%
same,[total cholesterol] Mean percentage CFB - 12 weeks results,"50 mg q.d. (N = 82), week 12",5%
same,[total cholesterol] Mean percentage CFB - 12 weeks results,"100 mg q.d. (N = 85), week 1",4%
same,[total cholesterol] Mean percentage CFB - 12 weeks results,"100 mg q.d. (N = 85), week 2",2%
same,[total cholesterol] Mean percentage CFB - 12 weeks results,"100 mg q.d. (N = 85), week 4",5%
same,[total cholesterol] Mean percentage CFB - 12 weeks results,"100 mg q.d. (N = 85), week 8",4%
same,[total cholesterol] Mean percentage CFB - 12 weeks results,"100 mg q.d. (N = 85), week 12",5%
same,[total cholesterol] Mean percentage CFB - 12 weeks results,"200 mg q.d. (N = 86), week 1",6%
same,[total cholesterol] Mean percentage CFB - 12 weeks results,"200 mg q.d. (N = 86), week 2",7%
same,[total cholesterol] Mean percentage CFB - 12 weeks results,"200 mg q.d. (N = 86), week 4",8%
same,[total cholesterol] Mean percentage CFB - 12 weeks results,"200 mg q.d. (N = 86), week 8",10%
same,[total cholesterol] Mean percentage CFB - 12 weeks results,"200 mg q.d. (N = 86), week 12",10%
same,[total cholesterol] Mean percentage CFB - 12 weeks results,"2 x 25 mg b.i.d. (N = 86), week 1",2%
same,[total cholesterol] Mean percentage CFB - 12 weeks results,"2 x 25 mg b.i.d. (N = 86), week 2",3%
same,[total cholesterol] Mean percentage CFB - 12 weeks results,"2 x 25 mg b.i.d. (N = 86), week 4",3%
same,[total cholesterol] Mean percentage CFB - 12 weeks results,"2 x 25 mg b.i.d. (N = 86), week 8",3%
same,[total cholesterol] Mean percentage CFB - 12 weeks results,"2 x 25 mg b.i.d. (N = 86), week 12",5%
same,[total cholesterol] Mean percentage CFB - 12 weeks results,"2 x 50 mg b.i.d. (N = 85), week 1",3%
same,[total cholesterol] Mean percentage CFB - 12 weeks results,"2 x 50 mg b.i.d. (N = 85), week 2",4%
same,[total cholesterol] Mean percentage CFB - 12 weeks results,"2 x 50 mg b.i.d. (N = 85), week 4",7%
same,[total cholesterol] Mean percentage CFB - 12 weeks results,"2 x 50 mg b.i.d. (N = 85), week 8",6%
same,[total cholesterol] Mean percentage CFB - 12 weeks results,"2 x 50 mg b.i.d. (N = 85), week 12",6%
same,[total cholesterol] Mean percentage CFB - 12 weeks results,"2 x 100 mg b.i.d. (N = 84), week 1",7%
same,[total cholesterol] Mean percentage CFB - 12 weeks results,"2 x 100 mg b.i.d. (N = 84), week 2",8%
same,[total cholesterol] Mean percentage CFB - 12 weeks results,"2 x 100 mg b.i.d. (N = 84), week 4",10%
same,[total cholesterol] Mean percentage CFB - 12 weeks results,"2 x 100 mg b.i.d. (N = 84), week 8",15%
same,[total cholesterol] Mean percentage CFB - 12 weeks results,"2 x 100 mg b.i.d. (N = 84), week 12",15%
same,[Total cholesterol] Median CFB,"50 mg q.d., week 1",0.05 mmol/L
same,[total cholesterol] Mean CFB,"50 mg q.d., week 1",0.0 mmol/L
same,[Total cholesterol] Median CFB,"50 mg q.d., week 2",0.04 mmol/L
same,[total cholesterol] Mean CFB,"50 mg q.d., week 2",0.1 mmol/L
same,[Total cholesterol] Median CFB,"50 mg q.d., week 4",0.06 mmol/L
same,[total cholesterol] Mean CFB,"50 mg q.d., week 4",0.1 mmol/L
same,[Total cholesterol] Median CFB,"50 mg q.d., week 8",0.16 mmol/L
same,[total cholesterol] Mean CFB,"50 mg q.d., week 8",0.1 mmol/L
same,[Total cholesterol] Median CFB,"50 mg q.d., week 12",0.20 mmol/L
same,[total cholesterol] Mean CFB,"50 mg q.d., week 12",0.2 mmol/L
same,[Total cholesterol] Median CFB,"100 mg q.d., week 1",0.14 mmol/L
same,[total cholesterol] Mean CFB,"100 mg q.d., week 1",0.2 mmol/L
same,[Total cholesterol] Median CFB,"100 mg q.d., week 2",0.07 mmol/L
same,[total cholesterol] Mean CFB,"100 mg q.d., week 2",0.1 mmol/L
same,[Total cholesterol] Median CFB,"100 mg q.d., week 4",0.25 mmol/L
same,[total cholesterol] Mean CFB,"100 mg q.d., week 4",0.2 mmol/L
same,[Total cholesterol] Median CFB,"100 mg q.d., week 8",0.09 mmol/L
same,[total cholesterol] Mean CFB,"100 mg q.d., week 8",0.1 mmol/L
same,[Total cholesterol] Median CFB,"100 mg q.d., week 12",0.30 mmol/L
same,[total cholesterol] Mean CFB,"100 mg q.d., week 12",0.2 mmol/L
same,[Total cholesterol] Median CFB,"200 mg q.d., week 1",0.25 mmol/L
same,[total cholesterol] Mean CFB,"200 mg q.d., week 1",0.3 mmol/L
same,[Total cholesterol] Median CFB,"200 mg q.d., week 2",0.34 mmol/L
same,[total cholesterol] Mean CFB,"200 mg q.d., week 2",0.3 mmol/L
same,[Total cholesterol] Median CFB,"200 mg q.d., week 4",0.33 mmol/L
same,[total cholesterol] Mean CFB,"200 mg q.d., week 4",0.4 mmol/L
same,[Total cholesterol] Median CFB,"200 mg q.d., week 8",0.54 mmol/L
same,[total cholesterol] Mean CFB,"200 mg q.d., week 8",0.4 mmol/L
same,[Total cholesterol] Median CFB,"200 mg q.d., week 12",0.26 mmol/L
same,[total cholesterol] Mean CFB,"200 mg q.d., week 12",0.5 mmol/L
same,[Total cholesterol] Median CFB,"2 x 25 mg b.i.d., week 1",0.12 mmol/L
